Measurements published in patent US10669272B2, “Substituted naphthyridinone compounds useful as T cell activators” (BRISTOL-MYERS SQUIBB COMPANY, priority 2018, dated 2020).
Read-outs that look alike come from different tables or passages of the source.

Legend:
[1] = test system: Human venous whole blood; assay: Human whole blood IFN-γ assay; type: cell-based; conditions: human whole blood, normalized to 3 μM reference compound with anti-CD3 plus anti-CD28 as 100% activation, read-out: INFg Whole Blood Normalized Agonist EC50;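 also: blood from healthy donors exposed to compound for 1 h before stimulation with anti-CD3 and anti-CD28 at 1 µg/mL each, IFN-γ quantified in supernatant by AlphaLISA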
[2] = target: T1, human DGKζ (Homo sapiens, UniProt Q13574); assay: DGKζ LIPGLO assay (extruded liposome substrate), in vitro DGK inhibition; type: biochemical; conditions: liposome (LIPGLO) assay; read-out: DGKz LIPGLO IC50
T1 construct: TVMV protease cleavage site (C); Hexa-His (C); made in house; host or cells: Sf9 insect cells (baculovirus, Bac-to-Bac)
T1 sequence (Q13574 with tags, fused parts or gaps isoform Q13574-4): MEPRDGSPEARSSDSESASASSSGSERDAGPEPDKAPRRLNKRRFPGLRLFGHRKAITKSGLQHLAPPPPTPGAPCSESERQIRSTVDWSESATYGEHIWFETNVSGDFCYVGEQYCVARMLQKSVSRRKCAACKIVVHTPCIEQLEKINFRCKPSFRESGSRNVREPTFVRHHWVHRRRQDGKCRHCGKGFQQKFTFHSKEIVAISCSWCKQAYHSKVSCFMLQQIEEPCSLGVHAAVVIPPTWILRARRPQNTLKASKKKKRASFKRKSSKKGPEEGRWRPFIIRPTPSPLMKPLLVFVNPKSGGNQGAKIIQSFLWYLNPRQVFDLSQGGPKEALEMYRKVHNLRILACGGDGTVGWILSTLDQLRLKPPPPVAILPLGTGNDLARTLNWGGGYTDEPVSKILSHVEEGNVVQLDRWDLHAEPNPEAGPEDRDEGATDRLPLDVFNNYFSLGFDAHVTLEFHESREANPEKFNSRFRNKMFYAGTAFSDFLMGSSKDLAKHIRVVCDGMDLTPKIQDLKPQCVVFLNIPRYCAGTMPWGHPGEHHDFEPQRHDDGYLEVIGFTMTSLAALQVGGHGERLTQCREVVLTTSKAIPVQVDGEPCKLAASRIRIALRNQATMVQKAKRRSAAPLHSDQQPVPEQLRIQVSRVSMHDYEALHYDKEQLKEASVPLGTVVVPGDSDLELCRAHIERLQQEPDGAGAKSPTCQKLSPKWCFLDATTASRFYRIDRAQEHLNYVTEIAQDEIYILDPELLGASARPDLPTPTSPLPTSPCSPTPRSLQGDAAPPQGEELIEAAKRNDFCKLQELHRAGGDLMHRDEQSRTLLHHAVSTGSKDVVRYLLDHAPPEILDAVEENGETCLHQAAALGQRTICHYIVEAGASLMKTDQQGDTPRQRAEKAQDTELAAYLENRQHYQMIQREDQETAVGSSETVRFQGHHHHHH

[3] = target: T2, human DGKα (Homo sapiens, UniProt P23743); assay: DGKα LIPGLO assay (extruded liposome substrate), in vitro DGK inhibition; type: biochemical; conditions: liposome (LIPGLO) assay; read-out: DGKa LIPGLO IC50
T2 construct: TVMV protease cleavage site (C); Hexa-His (C); made in house; host or cells: Sf9 insect cells (baculovirus, Bac-to-Bac)
T2 sequence (P23743 with tags, fused parts or gaps): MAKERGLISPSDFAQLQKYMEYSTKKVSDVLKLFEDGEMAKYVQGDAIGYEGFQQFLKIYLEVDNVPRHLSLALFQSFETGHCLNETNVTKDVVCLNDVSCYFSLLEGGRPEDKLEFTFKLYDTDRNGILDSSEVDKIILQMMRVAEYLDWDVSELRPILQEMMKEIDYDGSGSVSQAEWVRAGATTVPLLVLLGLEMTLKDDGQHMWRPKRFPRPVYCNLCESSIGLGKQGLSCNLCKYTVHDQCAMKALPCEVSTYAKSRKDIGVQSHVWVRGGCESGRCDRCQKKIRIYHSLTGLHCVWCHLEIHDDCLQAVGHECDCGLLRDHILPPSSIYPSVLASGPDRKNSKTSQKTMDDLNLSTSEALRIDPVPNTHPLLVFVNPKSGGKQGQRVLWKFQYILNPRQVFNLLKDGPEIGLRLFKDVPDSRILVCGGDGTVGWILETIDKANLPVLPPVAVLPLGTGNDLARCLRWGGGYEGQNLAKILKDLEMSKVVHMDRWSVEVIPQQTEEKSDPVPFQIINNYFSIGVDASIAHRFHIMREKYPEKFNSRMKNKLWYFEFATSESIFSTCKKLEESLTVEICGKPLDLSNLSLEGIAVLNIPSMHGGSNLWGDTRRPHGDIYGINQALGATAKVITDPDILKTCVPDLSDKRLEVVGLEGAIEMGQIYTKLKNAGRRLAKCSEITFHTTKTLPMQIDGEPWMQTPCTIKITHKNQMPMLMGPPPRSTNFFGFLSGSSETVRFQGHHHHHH

SMILES | IC50 [2] | IC50 [3] | EC50 [1] | EC50 ([1]; Homo sapiens, 24 h)
CC(c1ccc(C2CC2)cc1)N1C[C@H](C)N(c2cc(=O)n(C)c3ccc(C#N)nc23)C[C@H]1C (single isomer, unassigned) [Example 1214] | 0.075 µM | 0.075 µM | 0.22 µM | –
CC(c1ccc(C2CC2)cc1)N1C[C@H](C)N(c2cc(=O)n(C)c3ccc(C#N)nc23)C[C@H]1C (single isomer, unassigned) [Example 1215] | 0.68 µM | 0.72 µM | 7.2 µM | –
CC(c1cccc2c1OC(F)(F)O2)N1C[C@H](C)N(c2cc(=O)n(C)c3ccc(C#N)nc23)C[C@H]1C (single isomer, unassigned) [Example 1216] | 0.15 µM | 83 µM | 1.8 µM | –
CC(c1cccc2c1OC(F)(F)O2)N1C[C@H](C)N(c2cc(=O)n(C)c3ccc(C#N)nc23)C[C@H]1C (single isomer, unassigned) [Example 1217] | 2.1 µM | 37 µM | 4.6 µM | –
CCC(c1ccc(C2CC2)cc1)N1C[C@H](C)N(c2cc(=O)n(C)c3ccc(C#N)nc23)C[C@H]1C (single isomer, unassigned) [Example 1220] | 0.095 µM | 0.11 µM | 0.12 µM | –
CCC(c1ccc(C2CC2)cc1)N1C[C@H](C)N(c2cc(=O)n(C)c3ccc(C#N)nc23)C[C@H]1C (single isomer, unassigned) [Example 1221] | 2.7 µM | 0.85 µM | 4.2 µM | –
CC(c1ccc(OC(F)F)cn1)N1C[C@H](C)N(c2cc(=O)n(C)c3ccc(C#N)nc23)C[C@H]1C (single isomer, unassigned) [Example 1224] | 1.4 µM | 0.041 µM | 1.8 µM | –
CC(c1ccc(OC(F)F)cn1)N1C[C@H](C)N(c2cc(=O)n(C)c3ccc(C#N)nc23)C[C@H]1C (single isomer, unassigned) [Example 1225] | 1.2 µM | 0.15 µM | 7.7 µM | –
CC(c1ccc(C#N)cc1F)N1C[C@H](C)N(c2cc(=O)n(C)c3ccc(C#N)nc23)C[C@H]1C (single isomer, unassigned) [Example 1226] | 1.7 µM | 0.75 µM | 8.7 µM | –
CC(c1ccc(C#N)cc1F)N1C[C@H](C)N(c2cc(=O)n(C)c3ccc(C#N)nc23)C[C@H]1C (single isomer, unassigned) [Example 1227] | 0.11 µM | 0.051 µM | 0.67 µM | –
CC(c1cc(OC(F)F)ccc1F)N1C[C@H](C)N(c2cc(=O)n(C)c3ccc(C#N)nc23)C[C@H]1C (single isomer, unassigned) [Example 1229] | 0.16 µM | 0.3 µM | – | 0.51 µM
COc1cc(C(C)N2C[C@H](C)N(c3cc(=O)n(C)c4ccc(C#N)nc34)C[C@H]2C)ccc1F (single isomer, unassigned) [Example 1231] | 0.11 µM | 3.8 µM | 1.2 µM | –
COc1cc(C(C)N2C[C@H](C)N(c3cc(=O)n(C)c4ccc(C#N)nc34)C[C@H]2C)ccc1F (single isomer, unassigned) [Example 1232] | 1.4 µM | 33 µM | 20 µM | –
CC(C)c1ccc(C(C)N2C[C@H](C)N(c3cc(=O)n(C)c4ccc(C#N)nc34)C[C@H]2C)cc1 (single isomer, unassigned) [Example 1233] | 0.1 µM | 0.29 µM | 0.38 µM | –
CC(C)c1ccc(C(C)N2C[C@H](C)N(c3cc(=O)n(C)c4ccc(C#N)nc34)C[C@H]2C)cc1 (single isomer, unassigned) [Example 1234] | 1.4 µM | 2.2 µM | 5.4 µM | –
COc1cc(F)ccc1C(C)N1C[C@H](C)N(c2cc(=O)n(C)c3ccc(C#N)nc23)C[C@H]1C (single isomer, unassigned) [Example 1236] | 0.043 µM | 11 µM | 1.3 µM | –
COc1cc(F)ccc1C(C)N1C[C@H](C)N(c2cc(=O)n(C)c3ccc(C#N)nc23)C[C@H]1C (single isomer, unassigned) [Example 1237] | 0.58 µM | 6.1 µM | 12 µM | –
CC(c1ccc(-n2cncn2)cc1)N1C[C@H](C)N(c2cc(=O)n(C)c3ccc(C#N)nc23)C[C@H]1C (single isomer, unassigned) [Example 1238] | 3.2 µM | 0.2 µM | 9.7 µM | –
CC(c1ccc(-n2cncn2)cc1)N1C[C@H](C)N(c2cc(=O)n(C)c3ccc(C#N)nc23)C[C@H]1C (single isomer, unassigned) [Example 1239] | 23 µM | 26 µM | 20 µM | –

More lines, main results first:

IC50 [2] | IC50 [3] | SMILES | EC50 [1] | EC50 ([1]; Homo sapiens, 24 h)
0.1 µM | 11 µM | COc1cc(F)c(C(C)N2C[C@H](C)N(c3cc(=O)n(C)c4ccc(C#N)nc34)C[C@H]2C)cc1OC (single isomer, unassigned) [Example 1246] | 2.1 µM | –
7.4 µM | 24 µM | COc1cc(F)c(C(C)N2C[C@H](C)N(c3cc(=O)n(C)c4ccc(C#N)nc34)C[C@H]2C)cc1OC (single isomer, unassigned) [Example 1247] | 20 µM | –
0.25 µM | 1.6 µM | CC(c1ccc(C2(C#N)CC2)cc1F)N1C[C@H](C)N(c2cc(=O)n(C)c3ccc(C#N)nc23)C[C@H]1C (single isomer, unassigned) [Example 1251] | – | 3.9 µM
3.1 µM | 5.7 µM | CC(c1ccc(C2(C#N)CC2)cc1F)N1C[C@H](C)N(c2cc(=O)n(C)c3ccc(C#N)nc23)C[C@H]1C (single isomer, unassigned) [Example 1252] | – | 7.7 µM
0.18 µM | 0.68 µM | CC(c1ccc(F)c(Cl)c1)N1C[C@H](C)N(c2cc(=O)n(C)c3ccc(C#N)nc23)C[C@H]1C (single isomer, unassigned) [Example 1256] | 0.48 µM | –
1.1 µM | 7.9 µM | CC(c1ccc(F)c(Cl)c1)N1C[C@H](C)N(c2cc(=O)n(C)c3ccc(C#N)nc23)C[C@H]1C (single isomer, unassigned) [Example 1257] | 1.7 µM | –
0.015 µM | 2.2 µM | CC(c1ccc2c(c1)OCCO2)N1C[C@H](C)N(c2cc(=O)n(C)c3ccc(C#N)nc23)C[C@H]1C (single isomer, unassigned) [Example 1258] | – | 2.6 µM
0.67 µM | 5.6 µM | CC(c1ccc2c(c1)OCCO2)N1C[C@H](C)N(c2cc(=O)n(C)c3ccc(C#N)nc23)C[C@H]1C (single isomer, unassigned) [Example 1259] | 4.9 µM | –
0.11 µM | 3.5 µM | CC(c1cccc(OC(F)(F)F)c1)N1C[C@H](C)N(c2cc(=O)n(C)c3ccc(C#N)nc23)C[C@H]1C (single isomer, unassigned) [Example 1267] | – | 0.73 µM
1 µM | 2.1 µM | CC(c1cccc(OC(F)(F)F)c1)N1C[C@H](C)N(c2cc(=O)n(C)c3ccc(C#N)nc23)C[C@H]1C (single isomer, unassigned) [Example 1268] | – | 5.2 µM
0.47 µM | 0.12 µM | CC(c1ccc(OC(F)(F)F)c(F)c1)N1C[C@H](C)N(c2cc(=O)n(C)c3ccc(C#N)nc23)C[C@H]1C (single isomer, unassigned) [Example 1269] | 0.54 µM | –
2.7 µM | 1.7 µM | CC(c1ccc(OC(F)(F)F)c(F)c1)N1C[C@H](C)N(c2cc(=O)n(C)c3ccc(C#N)nc23)C[C@H]1C (single isomer, unassigned) [Example 1270] | 8 µM | –
0.36 µM | 0.18 µM | CC(c1csc(C(F)(F)F)n1)N1C[C@H](C)N(c2cc(=O)n(C)c3ccc(C#N)nc23)C[C@H]1C (single isomer, unassigned) [Example 1273] | – | 1.7 µM
0.61 µM | 0.069 µM | COCC(c1ccc(C(F)(F)F)cn1)N1C[C@H](C)N(c2cc(=O)n(C)c3ccc(C#N)nc23)C[C@H]1C (single isomer, unassigned) [Example 1277] | – | 1.4 µM
0.4 µM | 0.22 µM | COCC(c1ccc(C(F)(F)F)cn1)N1C[C@H](C)N(c2cc(=O)n(C)c3ccc(C#N)nc23)C[C@H]1C (single isomer, unassigned) [Example 1278] | 2 µM | –
8.5 µM | 1.3 µM | C[C@@H]1CN(c2cc(=O)n(C)c3ccc(C#N)nc23)[C@@H](C)CN1C(CO)c1ccc(C(F)(F)F)cn1 (single isomer, unassigned) [Example 1280] | – | 9.9 µM
1.1 µM | 0.49 µM | CC(c1cc(C2CC2)on1)N1C[C@H](C)N(c2cc(=O)n(C)c3ccc(C#N)nc23)C[C@H]1C (single isomer, unassigned) [Example 1281] | 1.6 µM | –
2.1 µM | 1.4 µM | CC(c1cc(C2CC2)on1)N1C[C@H](C)N(c2cc(=O)n(C)c3ccc(C#N)nc23)C[C@H]1C (single isomer, unassigned) [Example 1282] | 5.2 µM | –
7.6 µM | 4.1 µM | CC(c1cc(C(C)(C)C)on1)N1C[C@H](C)N(c2cc(=O)n(C)c3ccc(C#N)nc23)C[C@H]1C (single isomer, unassigned) [Example 1283] | – | 4 µM
0.017 µM | 0.026 µM | C[C@@H]1CN(c2cc(=O)n(C)c3ccc(C#N)nc23)[C@@H](C)CN1C(c1ccc(Cl)cc1)c1nc(C2CC2)no1 (single isomer, unassigned) [Example 1285] | 0.092 µM | –
